Assay results taken from patent publication US20050038044A1, “Use of propionyl-carnitine or one of its pharmacologically acceptable salts for the preparation of a medicine for the treatment of la peyronie's disease” (priority 2001, published 2005).

Columns and labels:
[1] = system: La Peyronie's disease in the early stages; details: oral treatment; acute and early chronic stages; cited from earlier work
[2] = system: chemically induced inflammation of both the skin and the arteries; details: rats; cited from earlier work
[3] = system: induratio penis plastica at an advanced chronic stage; assay: Example 6: oral propionyl L-carnitine versus oral acetyl L-carnitine, each plus intraplaque verapamil; assay type: in vivo, human
Experimental: 20 subjects (mean age 48, range 40-61) with induratio penis plastica at an advanced chronic stage were randomised to two groups of 10 patients each. The first group was submitted to therapy with oral propionyl L-carnitine (PLC) 1×2 g/day 3 months and intraplaque verapamil 10 mg (10 infiltrations, 1 a week), while the second group was submitted to therapy with oral acetyl L-carnitine (ALC) 1×2 g/day for 3 months+intraplaque verapamil 10 mg (10 infiltrations, 1 a week). The variables measured were plaque area by dynamic colour Doppler penile ultrasonography. In view of the limited number of subjects in the sample it was not possible to carry out any analysis of other data; in any event, the size of the plaque is the most important variable when monitoring La Peyronie's disease, since all the other symptoms depend on the extent of the plaque (Belgrano, ibid.).
The results are presented in Table 14, where the data are expressed as mean±standard deviation (S.D.).

[4] = system: induratio penis plastica (La Peyronie's disease) at the chronic stage; assay: Example 1: oral tamoxifen versus intravenous propionyl L-carnitine, randomised patients; assay type: in vivo, human
Experimental: (§1) The examples are based on a limited number of patients and therefore the analysis of the results was carried out only with regard to the fundamental characteristics of the disease, namely plaque area in mm^2 (as measured by means of dynamic colour Doppler ultrasonography) and curvature of the artificially erect penis induced by intracavernous injection of 20 μg of prostaglandin E1.
40 subjects (mean age 52, range 44-61) with induratio penis plastica (La Peyronie's disease) at the chronic stage were randomised […] intravenous propionyl L-carnitine 300×2 mg/day for 3 months, and the second group to therapy with oral tamoxifen 20×2 mg/day. The variables measured were plaque area by means of dynamic colour Doppler ultrasonography and penile curvature, which was present in 16 patients per group. […] Intraplaque verapamil was not used in these patients.
The results are presented in Table 1, where the data are expressed as mean±standard deviation (S.D.).

[5] = system: induratio penis plastica in the early chronic stage; assay: Example 2: oral tamoxifen versus intramuscular propionyl L-carnitine, randomised patients; assay type: in vivo, human
Experimental: as §1
30 subjects (mean age 50, range 42-63) with induratio penis plastica in the early chronic stage were randomised to two groups of 15 patients each. The first group was submitted to therapy with intramuscular propionyl L-carnitine 300×2 mg/day for 3 months, and the second group to therapy with oral tamoxifen 20×2 mg/day. The variables measured were plaque area (in all subjects) and penile curvature, which was present in 12 subjects per group. […] Intraplaque verapamil was not used in these patients.
The results are presented in Table 2, where the data are expressed as mean±standard deviation (S.D.).

[6] = system: induratio penis plastica in the chronic stage; assay: Example 3: intraplaque triamcinolone acetonide versus intraplaque propionyl L-carnitine; assay type: in vivo, human
Experimental: as §1
In this case […] the study population consisted of 34 patients (mean age 50, range 44-63) with induratio penis plastica in the chronic stage, who presented an irremediable intolerance to intraplaque verapamil.
17 were submitted to intraplaque infiltrations with propionyl L-carnitine 300 mg, 1 infiltration per week for 10 weeks, and 17 to intraplaque infiltrations with triamcinolone acetonide 40 mg (Kenacort® Squibb), 1 infiltration per week for 10 weeks. The variables measured were plaque area in mm^2 by dynamic colour Doppler ultrasonography and the curvature of the artificially erect penis in degrees.
The results are presented in Table 3, where the data are expressed as mean±standard deviation (S.D.).

[7] = system: advanced La Peyronie's disease; assay: Example 4: randomised double-blind study, intraplaque verapamil plus oral propionyl L-carnitine or tamoxifen; assay type: in vivo, human; details: curvature, plaque area, I.I.E.F. 15 score, EDV, RI
Experimental: The study was conducted according to a randomised double-blind protocol. […] The data were collected 6 months after the end of therapy when the initial history taking and semeiological examination were repeated. […] I.I.E.F. 15 score; • V. Peak systolic velocity (PSV) (cm/sec), end-diastolic velocity (EDV) (cm/sec) and the resistivity index (RI) of the right and left cavernous arteries using dynamic Doppler ultrasonography; • VI. […] Need for penis straightening surgery and/or for straightening and a prosthesis, the results being classified as presence or absence of any such need; • VIII. Side effects classified as presence or absence of side effects.

[8] = after therapy, oral 1×2 g/day for 3 months + intraplaque verapamil 10 mg (10 infiltrations, 1 a week)
[9] = after therapy, PLC intravenous 300×2 mg/day, tamoxifen oral 20×2 mg/day, 3 months
[10] = before therapy, artificially erect penis, 16 patients per group
[11] = after therapy, PLC intramuscular 300×2 mg/day, tamoxifen oral 20×2 mg/day, 3 months
[12] = before therapy, 12 subjects per group
[13] = after therapy, intraplaque PLC 300 mg or triamcinolone acetonide 40 mg, 1 infiltration per week for 10 weeks

| SMILES | Protection against chemically induced inflammation, in words [2] | Plaque area [3, 8] | Plaque area ([3]; before therapy, mean) | Curvature [4, 9] | Plaque area [4, 9] | Curvature [4, 10] | Plaque area ([4]; before therapy, mean) | Curvature [5, 11] | Plaque area [5, 11] | Curvature [5, 12] | Plaque area ([5]; before therapy, mean) | Curvature [6, 13] | Plaque area [6, 13] | Curvature ([6]; before therapy) | Plaque area ([6]; before therapy, mean) | other results |
| --- | --- | --- | --- | --- | --- | --- | --- | --- | --- | --- | --- | --- | --- | --- | --- | --- |
| CC(=O)O[C@H](CC(=O)[O-])C[N+](C)(C)C [ALC, acetyl L-carnitine, reference compound] | not being shared | 11.8 mm^2 | 16.3 mm^2 | – | – | – | – | – | – | – | – | – | – | – | – | Activity in the treatment of La Peyronie's disease, in words [1]: significantly more active than tamoxifen |
| CC/C(=C(\c1ccccc1)c1ccc(OCCN(C)C)cc1)c1ccccc1 [Tamoxifen, tamoxifen, reference compound] | – | – | – | 23.06 degrees | 25.2 mm^2 | 24.31 degrees | 26.8 mm^2 | 16.58 degrees | 9.07 mm^2 | 18.08 degrees | 11.6 mm^2 | – | – | – | – | – |
| CC1(C)O[C@@H]2C[C@H]3[C@@H]4CCC5=CC(=O)C=C[C@]5(C)[C@@]4(F)[C@@H](O)C[C@]3(C)[C@]2(C(=O)CO)O1 [Triamcinolone, triamcinolone acetonide, reference compound] | – | – | – | – | – | – | – | – | – | – | – | 23.15 degrees | 25.35 mm^2 | 22.69 degrees | 25.23 mm^2 | – |
| C[N+](C)(C)C[C@H](O)CC(=O)[O-] [L-carnitine] | not being shared | – | – | – | – | – | – | – | – | – | – | – | – | – | – | – |
| CCC(=O)O[C@H](CC(=O)[O-])C[N+](C)(C)C [PLC, propionyl L-carnitine] | capable of affording protection | 7.9 mm^2 | 16.4 + mm^2 | 20.06 degrees | 19.2 mm^2 | 25.31 degrees | 25.6 mm^2 | 13.00 degrees | 6.47 mm^2 | 17.75 degrees | 11.1 mm^2 | 14.77 degrees | 15.47 mm^2 | 20.38 degrees | 26.65 mm^2 | Reduction of plaque area and curvature of the artificially erect penis, in words ([4]; intravenous PLC compared with oral tamoxifen): significantly greater extent than tamoxifen; Activity on plaque area and curvature, in words ([6]; intraplaque PLC compared with intraplaque triamcinolone acetonide): significantly more active than triamcinolone acetonide; Reduction of plaque area, in words ([3]; PLC plus intraplaque verapamil compared with ALC plus intraplaque verapamil): significantly greater extent than acetyl L-carnitine plus intraplaque verapamil; Reduction of plaque area and curvature of the artificially erect penis, in words ([5]; intramuscular PLC compared with oral tamoxifen): significantly greater extent than tamoxifen; Activity on the variables characterising the disease, in words [7]: significantly more active than combined tamoxifen and verapamil |
